# Source: article PMC2606674, “Metabolism of no-carrier-added 2-[^18F]fluoro-L-tyrosine in rats” (BMC Medical Physics, 2008)
# Like-named read-outs stand apart in the source and are kept apart here.
# Experiments:
# [1] = Biodistribution of radioactivity after i.v. injection in awake rats; format: in vivo, rat
# Method: All animal experiments were approved by the Ethical Committee at our institution. Chronic cannulations of rats (male, Sprague Dawley, 180–250 g) were performed in the abdominal aorta and in the vena cava under general anaesthesia (ketamine 35 mg/kg and medetomidin 0.35 mg/kg) following the procedure described by Lestage. The animals were allowed to recover for a minimum of 4 days before being used for metabolism studies. Most of them were injected with the tracer within the first week after surgery. Some of them were kept up to 4 weeks before injection. Twenty hours before the injection of the tracer, the food was removed from the cage. The arterial line was used for blood sampling and the other for i.v. injection of the tracer. The two lines were flushed with saline a few minutes before use in order to check potency. 14 rats (230–410 g) were injected with 20–325 MBq of n-c-a 2-[^18F]Tyr. The tracer was delivered as a bolus of maximum volume 0.75 ml in 15 s. […]
# Radioactivity was measured in weighed fractions of plasma. […] The supernatant was analysed by HPLC. Radioactivity was measured in the organ samples and in one half of the three dissected parts of the brain. […] The supernatant was analysed by HPLC.
# Radioactivity measurements of the biological samples and of the fractions collected during HPLC were performed with a NaI counter (Cobra II autogamma, Packard).
# cerebral proteins [2] = experiment: Incorporation into proteins (TCA precipitation of brain regions) in rats; format: in vivo, rat
# Method: Chronic cannulations of rats (male, Sprague Dawley, 180–250 g) were performed in the abdominal aorta and in the vena cava under general anaesthesia (ketamine 35 mg/kg and medetomidin 0.35 mg/kg) following the procedure described by Lestage [14]. The animals were allowed to recover for a minimum of 4 days before being used for metabolism studies. Most of them were injected with the tracer within the first week after surgery. Some of them were kept up to 4 weeks before injection. Twenty hours before the injection of the tracer, the food was removed from the cage. The arterial line was used for blood sampling and the other for i.v. injection of the tracer. The two lines were flushed with saline a few minutes before use in order to check potency. 14 rats (230–410 g) were injected with 20–325 MBq of n-c-a 2-[^18F]Tyr. The tracer was delivered as a bolus of maximum volume 0.75 ml in 15 s. Samples of blood were obtained via the arterial cannula during the first minutes after the injection and at different times (15, 30, 45, 60 and/or 90 minutes) thereafter. The line was flushed with saline between each sample to avoid any loss of potency and to ensure the homogeneity of the next sample. The animals (n = number of rats) were sacrificed after 30 (n = 2), 60 (n = 5), 90 (n = 3) or 120 (n = 4) minutes. After the final time point, samples of blood were taken and the major organs were dissected. The brain was dissected to obtain striatum, cortex and cerebellum.
# Trichloroacetic acid (TCA) was used to precipitate the proteins from biological samples in order to assay the radioactive content associated with proteins and to perform a chromatographic analysis of the radioactive compounds in solution in the supernatant after centrifugation. The solution used for the precipitation was Na2S2O5 100 mg, NaEDTA.2H2O 10 mg, TCA 20 g, dissolved in water up to 100 ml.
# Radioactivity was measured in weighed fractions of plasma. For intermediate and final plasma samples, proteins were precipitated with TCA solution and separated by centrifugation (5°C, 5 minutes, 8000 RPM) before counting. The supernatant was analysed by HPLC. Radioactivity was measured in the organ samples and in one half of the three dissected parts of the brain. The second halves were sonicated with water (Sonics & Materials inc., Vibracell VXC-400). The proteins were precipitated with TCA solution and separated by centrifugation (5°C, 5 minutes, 8000 RPM) before counting. The supernatant was analysed by HPLC.
# [3] = design: method as in PMID 2787848; conditions: cited from earlier work
# cerebral proteins [4] = system: cerebral proteins; design: method as in PMID 2787848; conditions: mouse cortex; cited from earlier work
structure (smiles),measurement,setting,value
"N[C@@H](Cc1ccc(O)cc1[18F])C(=O)O [2-[^18F]Tyr, 2-[^18F]fluoro-L-tyrosine]",absolute uptake into rat brain tissue,"[1]; awake rats, i.v. bolus, n-c-a tracer",~ 0.15 %IA/g
same,passage of the blood-brain-barrier,"[1]; rats, brain uptake already high at 30 minutes post injection",rapidly passes the blood-brain-barrier
same,"radioactivity associated with proteins, percentage of the total activity in the tissue","cerebral proteins [2]; rat cerebellum, 60 minutes",84%
same,"radioactivity associated with proteins, percentage of the total activity in the tissue","cerebral proteins [2]; rat cortex, 60 minutes",85%
same,"radioactivity associated with proteins, percentage of the total activity in the tissue","cerebral proteins [2]; rat striatum, 60 min",66%
same,"incorporation into proteins, percentage of the total activity","cerebral proteins [2]; rats, non dopaminergic rich regions, 120 minutes",~90%
same,"absolute uptake into brain tissue, mice",[3]; at 40 min,~ 1.3 %IA/g
same,"absolute uptake into brain tissue, mice",[3]; at 60 min,~ 2 %IA/g
same,"radioactivity associated with proteins, percentage of the total activity in the tissue",cerebral proteins [4],84%
